{"source": "ChEMBL document CHEMBL1131960", "about": "“Simple mono-derivatisation of the aryl moiety of D4A and DDA-based phosphoramidate prodrugs significantly enhances their anti-HIV potency in cell culture” (Bioorg Med Chem Lett, 1999)", "key": {"esterase": {"test_system": "esterase", "test": "Compound was evaluated for esterase half-life (t 1/2) period using Pig Liver Esterase (PLE) assay", "assay_type": "ADME, Sus scrofa"}, "[1]": {"test": "Compound was evaluated for its lipophilicity by 1-octanol/water (phosphate buffer, pH 7.0) and the partition coefficient (log P) was reported.", "assay_type": "physicochemical"}, "CCRF-CEM [2]": {"test_system": "CCRF-CEM", "test": "Compound was evaluated for its concentration (potency) to inhibit the growth of CEM cells.", "assay_type": "functional", "conditions": "Homo sapiens"}, "CCRF-CEM [3]": {"test_system": "CCRF-CEM", "test": "Compound was evaluated for its effective concentration (potency) to inhibit the growth of HIV-1 in CEM cell culture.", "assay_type": "functional, cell-based", "conditions": "Homo sapiens"}, "CCRF-CEM [4]": {"test_system": "CCRF-CEM", "test": "Compound was evaluated for its effective concentration (potency) to inhibit the growth of HIV-2 in CEM cell culture.", "assay_type": "functional, cell-based", "conditions": "Homo sapiens"}, "[5]": {"test": "Compound was evaluated for its ability to inhibit the growth of HIV-1 in CEM cell culture (CC50/EC50)", "assay_type": "functional, CCRF-CEM"}, "[6]": {"test": "Compound was evaluated for its ability to inhibit the growth of HIV-2 in CEM cell culture (CC50/EC50)", "assay_type": "functional, CCRF-CEM"}}, "data": [{"smiles": "COC(=O)C(C)NP(=O)(OCC1CCC(n2cnc3c(N)ncnc32)O1)Oc1cccc(Br)c1", "note": "(stereo unspecified)", "values": [{"measurement": "half-life", "setting": "esterase", "value": 75, "unit": "h"}, {"measurement": "logD", "setting": "[1]", "value": 1.71}, {"measurement": "CC50", "setting": "CCRF-CEM [2]", "value": 560, "unit": "nM"}, {"measurement": "EC50", "setting": "CCRF-CEM [3]", "value": 2.3, "unit": "nM"}, {"measurement": "EC50", "setting": "CCRF-CEM [4]", "value": 3.3, "unit": "nM"}, {"measurement": "SI", "setting": "[5]", "value": 243}, {"measurement": "SI", "setting": "[6]", "value": 170}]}, {"smiles": "COC(=O)C(C)NP(=O)(OCC1C=CC(n2cnc3c(N)ncnc32)O1)Oc1ccc(Br)cc1", "note": "(stereo unspecified)", "values": [{"measurement": "half-life", "setting": "esterase", "value": 100, "unit": "h"}, {"measurement": "logD", "setting": "[1]", "value": 1.72}, {"measurement": "CC50", "setting": "CCRF-CEM [2]", "value": 840, "unit": "nM"}, {"measurement": "EC50", "setting": "CCRF-CEM [3]", "value": 3.2, "unit": "nM"}, {"measurement": "EC50", "setting": "CCRF-CEM [4]", "value": 2.7, "unit": "nM"}, {"measurement": "SI", "setting": "[5]", "value": 263}, {"measurement": "SI", "setting": "[6]", "value": 311}]}, {"smiles": "COC(=O)C(C)NP(=O)(OCC1C=CC(n2cnc3c(N)ncnc32)O1)Oc1ccc(I)cc1", "note": "(stereo unspecified)", "values": [{"measurement": "half-life", "setting": "esterase", "value": 62, "unit": "h"}, {"measurement": "logD", "setting": "[1]", "value": 2.11}, {"measurement": "CC50", "setting": "CCRF-CEM [2]", "value": 860, "unit": "nM"}, {"measurement": "EC50", "setting": "CCRF-CEM [3]", "value": 2.3, "unit": "nM"}, {"measurement": "EC50", "setting": "CCRF-CEM [4]", "value": 1.7, "unit": "nM"}, {"measurement": "SI", "setting": "[5]", "value": 374}, {"measurement": "SI", "setting": "[6]", "value": 506}]}, {"smiles": "COC(=O)C(C)NP(=O)(OCC1C=CC(n2cnc3c(N)ncnc32)O1)Oc1ccccc1", "note": "(stereo unspecified)", "values": [{"measurement": "half-life", "setting": "esterase", "value": 301, "unit": "h"}, {"measurement": "logD", "setting": "[1]", "value": 0.94}, {"measurement": "CC50", "setting": "CCRF-CEM [2]", "value": 3800, "unit": "nM"}, {"measurement": "EC50", "setting": "CCRF-CEM [3]", "value": 5.5, "unit": "nM"}, {"measurement": "SI", "setting": "[5]", "value": 691}, {"measurement": "SI", "setting": "[6]", "value": 211}]}, {"smiles": "Nc1ncnc2c1ncn2[C@H]1C=C[C@@H](CO)O1", "values": [{"measurement": "logD", "setting": "[1]", "value": -0.36}, {"measurement": "CC50", "setting": "CCRF-CEM [2]", "value": 91000, "unit": "nM"}, {"measurement": "SI", "setting": "[5]", "value": 4.6}, {"measurement": "SI", "setting": "[6]", "value": 4.6}]}, {"smiles": "COC(=O)C(C)NP(=O)(OCC1CCC(n2cnc3c(N)ncnc32)O1)Oc1ccccc1", "note": "(stereo unspecified)", "values": [{"measurement": "half-life", "setting": "esterase", "value": 301, "unit": "h"}, {"measurement": "logD", "setting": "[1]", "value": 0.89}, {"measurement": "CC50", "setting": "CCRF-CEM [2]", "value": 2570, "unit": "nM"}, {"measurement": "EC50", "setting": "CCRF-CEM [3]", "value": 16, "unit": "nM"}, {"measurement": "EC50", "setting": "CCRF-CEM [4]", "value": 35, "unit": "nM"}, {"measurement": "SI", "setting": "[5]", "value": 161}, {"measurement": "SI", "setting": "[6]", "value": 73}]}, {"smiles": "COC(=O)C(C)NP(=O)(OCC1CCC(n2cnc3c(N)ncnc32)O1)Oc1cccc(I)c1", "note": "(stereo unspecified)", "values": [{"measurement": "half-life", "setting": "esterase", "value": 62, "unit": "h"}, {"measurement": "logD", "setting": "[1]", "value": 2.07}, {"measurement": "CC50", "setting": "CCRF-CEM [2]", "value": 430, "unit": "nM"}, {"measurement": "EC50", "setting": "CCRF-CEM [3]", "value": 2.2, "unit": "nM"}, {"measurement": "EC50", "setting": "CCRF-CEM [4]", "value": 2.7, "unit": "nM"}, {"measurement": "SI", "setting": "[5]", "value": 195}, {"measurement": "SI", "setting": "[6]", "value": 159}]}, {"smiles": "Nc1ncnc2c1ncn2[C@H]1CC[C@@H](CO)O1", "values": [{"measurement": "logD", "setting": "[1]", "value": -0.22}, {"measurement": "CC50", "setting": "CCRF-CEM [2]", "value": "> 100000", "unit": "nM"}, {"measurement": "EC50", "setting": "CCRF-CEM [3]", "value": 4000, "unit": "nM"}, {"measurement": "EC50", "setting": "CCRF-CEM [4]", "value": 8000, "unit": "nM"}, {"measurement": "SI", "setting": "[5]", "value": ">25"}, {"measurement": "SI", "setting": "[6]", "value": ">13"}]}]}
